Measurements taken from article PMC10937574, “Modification of 4-(4-chlorothiophen-2-yl)thiazol-2-amine derivatives for the treatment of analgesia and inflammation: synthesis and in vitro, in vivo, and in silico studies” (Frontiers in Pharmacology, 2024).
Values joined by “and” are separate entries in the source; they are usually repeats but may differ in a detail not shown here. Identical values can stand only once. Like-named read-outs stand apart in the source and are kept apart here.

Columns and labels:
[1] = system: leukotriene-induced paw edema; assay: Leukotriene-induced paw edema; type: in vivo, mouse; details: for percentage inhibition of leukotriene-induced paw edema: 20 mg/kg
Experimental: (§1) It was done by injecting 10% DMSO, a Bradykinin inhibitor (HOE 140) at a dose of 1 mg/kg, a lipoxygenase inhibitor (montelukast) at a dose of 25 mg/kg, an antihistamine at a dose of 100 mg/kg, […], or a cyclooxygenase inhibitor (celecoxib) at a dose of 50 mg/kg.

[2] = biological target: 5-LOX enzyme; assay: 5-LOX activity (5-lipoxygenase inhibition, linoleic acid substrate, absorbance 234 nm); details: read-out: IC50 ± SEM 5-LOX
[3] = system: histamine-induced paw edema; assay: Histamine-induced paw edema; type: in vivo, mouse; details: 20 mg/kg, at 3 h
[4] = system: bradykinin-induced paw edema; assay: Bradykinin-induced paw edema; type: in vivo, mouse; details: 20 mg/kg, first hour
Experimental: as §1

[5] = system: carrageenan-induced paw edema; assay: Carrageenan-induced paw edema; type: in vivo, albino mice
[6] = system: prostaglandin E2-induced paw edema; assay: Prostaglandin E2-induced paw edema; type: in vivo, mouse
Experimental: It was done by injecting 10% DMSO, a Bradykinin inhibitor (HOE 140) at a dose of 1 mg/kg, a lipoxygenase inhibitor (montelukast) at a dose of 25 mg/kg, an antihistamine at a dose of 100 mg/kg, the tested compound at a dose of 100 mg/kg, or a cyclooxygenase inhibitor (celecoxib) at a dose of 50 mg/kg.

In the case of `Clc1csc(-c2nc(NCc3ccccc3)sc2Nc2ccccc2)c1` [Compound 5e], the “percentage inhibition of leukotriene-induced paw edema” value (“percentage inhibition” for short) ([1]; fourth hour) is reported as 69.84%, the IC50 ([2]; listed as C00005) is reported as 38.45 ± 0.2 µM and the “antihistaminic effect (suppression of histamine-induced paw edema)” value [3] is reported as 35%. For the same compound, the “inhibition of bradykinin-induced paw swelling” value [4] was 21.30%, the “Percent inhibition of paw edema” value ([5]; dose 5 mg/kg, 1 h) was 47.70 ± 1.68 % and the “Percent inhibition of paw edema” value ([5]; dose 5 mg/kg, 2 h) was 51.47 ± 1.50 %. The “Percent inhibition of paw edema” value ([5]; dose 5 mg/kg, 3 h) was 54.56 ± 1.34 %, the “Percent inhibition of paw edema” value ([5]; dose 5 mg/kg, 4 h) was 53.35 ± 1.47 % and the “Percent inhibition of paw edema” value ([5]; dose 5 mg/kg, 5 h) was 56.25 ± 1.65 %. The “Percent inhibition of paw edema” value ([5]; dose 10 mg/kg, 1 h) was 52.36 ± 2.26 %, the “Percent inhibition of paw edema” value ([5]; dose 10 mg/kg, 2 h) was 54.58 ± 2.58 % and the “Percent inhibition of paw edema” value ([5]; dose 10 mg/kg, 3 h) was 57.59 ± 1.59 %. The “Percent inhibition of paw edema” value ([5]; dose 10 mg/kg, 4 h) was 56.78 ± 2.66 %, the “Percent inhibition of paw edema” value ([5]; dose 10 mg/kg, 5 h) was 62.65 ± 2.79 % and the “Percent inhibition of paw edema” value ([5]; dose 20 mg/kg, 1 h) was 55.29% and 55.29 ± 1.04 %. The “Percent inhibition of paw edema” value ([5]; dose 20 mg/kg, 2 h) was 57.39 ± 1.69 %, the “Percent inhibition of paw edema” value ([5]; dose 20 mg/kg, 3 h) was 60.76 ± 2.68 % and the “Percent inhibition of paw edema” value ([5]; dose 20 mg/kg, 4 h) was 59.08 ± 1.98 %. For the same compound, the “Percent inhibition of paw edema” value ([5]; dose 20 mg/kg, 5 h) was 64.59% and 64.59 ± 1.49 %.
Compound `CCNc1nc(-c2cc(Cl)cs2)c(Nc2ccccc2)s1` [Compound 5f] has an IC50 [2] of 56.21 ± 0.15 µM.
`CC(=O)Oc1ccccc1C(=O)O` [Aspirin, reference compound] was tested, and the “Percent inhibition of paw edema” value ([5]; dose 50 mg/kg, 1 h) was 48.52 ± 1.12 %, the “Percent inhibition of paw edema” value ([5]; dose 50 mg/kg, 2 h) was 54.63 ± 1.47 % and the “Percent inhibition of paw edema” value ([5]; dose 50 mg/kg, 3 h) was 55.22 ± 1.38 %. The “Percent inhibition of paw edema” value ([5]; dose 50 mg/kg, 4 h) was 58.92 ± 1.95 %, the “Percent inhibition of paw edema” value ([5]; dose 50 mg/kg, 5 h) was 59.60 ± 1.52 % and the “Percent inhibition of paw edema” value ([5]; dose 50 mg/kg, 5 h, listed as aspirin) was 59.60%.
`C#CCNc1nc(-c2cc(Cl)cs2)c(Nc2ccccc2)s1` [Compound 5g] was tested, and the IC50 [2] was 83.11 ± 0.16 µM.
In the case of `CC(C)(O)c1ccccc1CC[C@@H](SCC1(CC(=O)O)CC1)c1cccc(/C=C/c2ccc3ccc(Cl)cc3n2)c1` [montelukast, reference compound], the “percentage reduction of leukotriene-induced paw edema” value ([1]; montelukast 25 mg/kg, fourth hour) is reported as 72.79 ± 1.10%.
`CCNc1nc(-c2cc(Cl)cs2)c(N2CCNCC2)s1` [Compound 5b] showed an IC50 [2] of 98.26 ± 0.08 µM.
In the case of `Cc1ccc(-c2cc(C(F)(F)F)nn2-c2ccc(S(N)(=O)=O)cc2)cc1` [Celecoxib, reference compound], the “reduction of prostaglandin E2-induced paw edema” value ([6]; celecoxib 50 mg/kg, 4th hour after inflammogen) is reported as 88%.
`CN1CCN(c2sc(NCc3ccccc3)nc2-c2cc(Cl)cs2)CC1` [Compound 5d] was tested, and the “percentage inhibition” value ([1]; fifth hour (fifth of five values)) was 59.90 ± 0.68%, the “percentage inhibition” value ([1]; first hour (first of five values)) was 51.80 ± 0.58% and the “percentage inhibition” value ([1]; fourth hour) was 64.56 ± 0.78%. The “percentage inhibition” value ([1]; second hour (second of five values)) was 55.90 ± 0.66%, the “percentage inhibition” value ([1]; third hour (third of five values)) was 59.46 ± 0.52% and the IC50 [2] was 23.08 ± 0.18 µM. For the same compound, the “antihistaminic effect (suppression of histamine-induced paw edema)” value [3] was 27.12%, the “inhibition of prostaglandin E2-induced paw edema” value ([6]; 20 mg/kg, fourth hour) was 76.56 ± 0.58 and the “inhibition of bradykinin-induced paw swelling” value [4] was 9.20%. The “Percent inhibition of paw edema” value ([5]; dose 5 mg/kg, 1 h) was 45.47 ± 1.11%, the “Percent inhibition of paw edema” value ([5]; dose 5 mg/kg, 2 h) was 48.10 ± 1.42 % and the “Percent inhibition of paw edema” value ([5]; dose 10 mg/kg, 1 h) was 49.68 ± 1.44%. For the same compound, the “Percent inhibition of paw edema” value ([5]; dose 20 mg/kg, 5 h) was 61.64 ± 1.10%.
For `Nc1nc(-c2cc(Cl)cs2)c(N2CCNCC2)s1` [Compound 5a], the IC50 [2] was 93.15 ± 0.07 µM.
`CCNc1nc(-c2cc(Cl)cs2)c(N2CCN(C)CC2)s1` [Compound 5c] was tested, and the IC50 [2] was 72.32 ± 0.11 µM.
